Laboratory results as given in patent publication US7862995B2, “Methods and materials for predicting responsiveness to treatment with dual tyrosine kinase inhibitor” (Targeted Molecular Diagnostics, priority 2004, dated 2011).
“Also recorded” adds a separate entry of the source.

Columns and labels:
[1] = tested on: pAkt, pErk1 and pErk2 in MCF-7+HER2 cells; test: Western blot of MCF-7+HER2 cells for pErk1/Erk2/pAkt; type: cell-based
[2] = tested on: ER (and PR) expression in breast cancer cells; test: ER (and PR) expression in breast cancer cells; type: cell-based
[3] = tested on: breast, gastric, and head/neck carcinoma cell lines compared to normal human foreskin fibroblasts (HFF); conditions: cited from earlier work
[4] = tested on: BT474 breast tumor cells; test: Cell death in estrogen-stimulated BT474 cells, methylene blue staining; type: cell-based, human; conditions: 1 μM estrogen 24 hr, 5 μM GW2974 90 min, 10 μM tamoxifen 72 hr
Experimental: Exponentially growing BT474 cells were treated with 1 μM estrogen for 24 hr. After 24 hr the cells were either untreated or treated with 5 μM small molecule dual inhibitor of EGFR/erbB2 (Sigma, GW2974) for 90 min. After 90 min, the cells were either untreated or treated with 10 μM tamoxifen for 72 hr. Cells were then washed with 1×PBS, stained with methylene blue (1% methylene blue in 50% methanol), rinsed with water, and dried overnight.

[5] = tested on: AU-565 breast cancer cells; test: Viability of AU-565 and Bcl-2-transfected AU-565 cells after GW2974 treatment; type: cell-based
Text: Au-565 breast cancer cells were obtained from the American Tissue Culture Collection, (deposit # CRL-2351) (Manassas, Va.) and were transfected with a Bcl-2 cDNA to express high levels of Bcl-2. Methods of transfecting cells are well known in the art and any known methods may be used in this example. Transfected Au-565 cells were then exposed to GW2974 (Sigma-Aldrich, St. Louis, Mo.), a dual EGFR/HER2 tyrosine kinase inhibitor.

[6] = tested on: ER in MCF-7(HER2) cells; test: ER localization by immunofluorescence in MCF-7(HER2) cells; type: cell-based; conditions: 1 mM GW2974 for 4 days
Text: Nuclei are stained with DAPI and ER is detected by an immunofluorescent antibody

[7] = tested on: ER in breast cancer tissues; test: IHC of ER in breast cancer tissues after treatment; type: in vivo
[8] = tested on: invasive breast carcinoma; test: TUNEL staining of PCD in patient tumor samples; type: in vivo, human
Experimental: All TUNEL solutions and staining reagents used in the present invention were purchased from Roche. Paraffin-embedded tissue clinical samples were dewaxed and rehydrated by heating at 60° C. followed by washing in xylene and rehydration through a graded series of washes with ethanol and double distilled water. Samples were incubated for 15-30 min at 21-37° C. with Proteinase K. Slides were rinsed twice with PBS. The area around the sample was dried and 50 μl of TUNEL reaction mixture was added to each slide. A coverslip was added to each slide and incubated for 60 min at 37° C. in a humidified chamber in the dark. The slides were rinsed three times with PBS. The TUNEL signal was converted by first drying the area around the sample and then adding 50 μl of Converter-POD reagent. The slides were incubated in a humidified chamber for 30 min at 37° C. and then rinsed three times in PBS. 100 μl of DAB Substrate was added to each slide and incubated for 10 min at 15-25° C. The slides were then rinsed three times with PBS. Slides were mounted under glass coverslips and TUNEL staining was analyzed under a light microscope.

[9] = tested on: forkhead transcription factor 3 (FOXO3A) in AU-565 breast cancer cells; test: FOXO3A staining of AU-565 breast cancer cells; type: cell-based
[10] = tested on: FOXO3; test: ELISA gel for FOXO3; conditions: following treatment
[11] = Clinical response of a subject treated with a small molecule dual inhibitor of EGFR/erbB2; type: in vivo, human; conditions: one subject

Structure (SMILES) | effectiveness in cells pre-treated with estrogen ([1]; MCF-7+HER2 cells pre-treated with estrogen, then GW2974) | pAkt expression ([1]; MCF-7+HER2 cells treated with GW2974) | expression of pErk1 and pErk2 ([1]; MCF-7+HER2 cells treated with GW2974, relative to baseline control (actin)) | ER (and PR) expression [2] | selectivity in inhibiting cell growth [3] | cell death [4] | viable cells ([5]; AU-565/Bcl-2 cells (overexpressing Bcl-2) treated by GW2974) | viable cells ([5]; AU-565 cells treated by GW2974) [%] | higher rate of cell survival in cells with high Bcl-2 expression ([5]; following treatment with GW2974) | ER localization [6] | ER localization [7] | response of TUNEL-positive patient to treatment ([8]; patient with invasive breast carcinoma (IBC) positive for TUNEL staining) | levels of PCD by TUNEL staining ([8]; patient with invasive breast carcinoma, 21 days after treatment) | FOXO3A expression [9] | FOXO3 expression [10] | clinical response [11] | duration of response / disease free state ([11]; following treatment)
CN(C)c1cc2c(Nc3ccc4c(cnn4Cc4ccccc4)c3)ncnc2cn1 [GW2974] | not effective | not expressed; also recorded: greatly reduced | decreased | upregulates ER (and PR) expression | greater than 75 fold | increases cell death in the presence of tamoxifen | approximately 50% | ~20 | approximately 30% | accumulation of the ER in the cellular nucleus |  |  |  |  |  |  | 
CS(=O)(=O)CCNCc1ccc(-c2ccc3ncnc(Nc4ccc(OCc5cccc(F)c5)c(Cl)c4)c3c2)o1 [lapatinib] |  |  |  |  |  |  |  |  |  |  | change in ER localization | responded well | significantly increased levels of PCD | upregulated; also recorded: upregulates FOXO3A | upregulation of FOXO3 | complete response | at least 20 months
